The results in this text go back to US20080015198A1, “Substituted pyrazoline compounds, their preparation and use as medicaments” (LABORATORIOS DEL DR.ESTEVE S.A., priority 2004, published 2008).

Data set [1] deals with cannabinoid receptors. The data set is described as follows: Mouse tetrad model, agonistic effect. The format is in vivo, mice. Particulars: 5 mg/kg i.v.; for Agonistic effect B: Hypothermia: unit assumed. An excerpt: (§1) Substances with affinity for cannabinoid receptors are known to produce a wide range of pharmacological effects. It is also known that intravenous administration of a substance with affinity for cannabinoid receptors in mice produces analgesia, hypothermia, sedation and catalepsy. Individually, none of these effects can be considered as proof that a tested substance has affinity for cannabinoid-receptors, since all of these effects are common for various classes of centrally active agents. However, substances, which show all of these effects, i.e. substances that are active in this so-called tetrad model are considered to have affinity for the cannabinoid receptors. It has further been shown that cannabinoid receptor antagonists are higly effective in blocking the effects of a cannabinoid agonist in the mouse tetrad model.
(§2) The tetrad model is described, for example, in the publication of A. C. Howlett et al, International Union of Pharmacology XXVII. Classification of Cannabinoid Receptors, Pharmacol Rev 54, 161-202, 2002 and David R. Compton et al., “In-vivo Characterization of a Specific Cannabinoid Receptor Antagonist (SR141716A): Inhibition of Tetrahydrocannbinol-induced Responses and Apparent Agonist Activity”, J. Pharmacol. Exp. Ther. 277 , 2, 586-594, 1996. The corresponding parts of the description are hereby incorporated by reference.
(§3) Male NMRI mice with a weight of 20-30 g (Harlan, Barcelona, Spain) are used in all of the following experiments.
(§4) Before testing in the behavioral procedures given below, mice are acclimatized to the experimental setting. Pre-Treatment control values are determined for analgesia hot plate latency (in seconds), rectal temperature, sedation and catalepsy.
In order to determine the agonistic activty of the substance to be tested, the mice are injected intravenously with the substance to be tested or the vehicle alone. 15 minutes after injection, latency in hot plate analgesia is measured. Rectal temperature, sedation and catalepsy are measured 20 minutes after injection.
(§5) The hot plate analgesia is determined according to the method described in Woolfe D. et al. “The evaluation of analgesic action of pethidine hydrochloride (Demerol)”, J. Pharmacol. Exp. Ther. 80, 300-307, 1944.
(§6) The mice are placed on a hot plate (Harvard Analgesimeter) at 55±0.5° C. until they show a painful sensation by licking their paws or jumping and the time for these sensations to occur is recorded. This reading is considered the basal value (B). The maximum time limit the mice are allowed to remain on the hot plate in absence of any painful response is 40 seconds in order to prevent skin damage. This period is called the cut-off time (PC).
(§7) Fifteen minutes after the administration of the substance to be tested, the mice are again placed on the hot plate and the afore described procedure is repeated. This period is called the post-treatment reading (PT).
(§8) The degree of analgesia is calculated from the formula:
(§9) % MPE of Analgesia=(PT−B)/(PC−B)×100
(§10) Sedation and ataxia is determined according to the method described in Desmet L. K. C. et al. “Anticonvulsive properties of Cinarizine and Flunarizine in Rats and Mice”, Arzneim. -Forsch. (Frug Res) 25, 9, 1975.
(§11) The percentage of sedation is determined according to the formula:
(§12) % of sedation=arithmetic mean/3×100
(§13) Hypothermia is determined according to the method described in David R. Compton et. al. “In-vivo Characterization of a Specific Cannabinoid Receptor Antagonist (SR141716A) Inhibition of Tetrahydrocannbinol-induced Responses and Apparent Agonist Activity”, J. Pharmacol Exp Ther. 277, 2, 586-594, 1996.

Data set [2] has as its system cannabinoid receptors. The data set is described as follows: Mouse tetrad model, antagonistic effect against Win 55212-2. In kind it is in vivo, mice. Particulars: 5 mg/kg i.v. prior to Win 55212-2 in a dose of 1.25 mg/kg i.v.; for Antagonistic effect A: Hot-Plate test / Antagonistic effect B: Hypothermia: unit assumed.
Excerpt: as §1, §2, §3, §4
In order to determine the antagonistic activity the identical procedure is used as for the determination of the agonistic effects, but with the difference that the substance to be evaluated for its antagonistic activity is injectected 5 minutes before the intravenous injection of 1.25 mg/kg Win-55,212 a known cannabinoid-receptor agonist.
as §5, §6, §7, §8, §9, §10, §11, §12, §13
For orientation: Hot-plate and tail-flick tests time the reaction to a heat stimulus.

Data set [3] can be described thus: In-vivo testing for antidepressant activity, water despair test. As to the method:
The in-vivo testing for antidepressant activity of the inventive pyrazoline compounds in the water despair test was carried out as described above.

Data set [4] can be described thus: In-vivo testing for antiobesic activity. As to conditions: rats.
In the next data set the target is T1, CB2-Receptor (Homo sapiens, UniProt P34972).
T1 construct: purchased Receptor Biology, Inc
T1 sequence (P34972 whole entry): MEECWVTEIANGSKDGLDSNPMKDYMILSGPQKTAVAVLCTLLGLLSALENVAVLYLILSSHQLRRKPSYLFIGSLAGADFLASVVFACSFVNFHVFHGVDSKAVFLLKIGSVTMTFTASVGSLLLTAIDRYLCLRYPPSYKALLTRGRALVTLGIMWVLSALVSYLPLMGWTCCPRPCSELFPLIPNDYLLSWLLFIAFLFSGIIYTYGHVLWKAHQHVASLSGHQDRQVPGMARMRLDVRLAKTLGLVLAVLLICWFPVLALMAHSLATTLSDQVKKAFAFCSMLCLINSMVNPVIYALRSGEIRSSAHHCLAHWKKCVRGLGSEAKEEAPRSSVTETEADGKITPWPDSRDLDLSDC
In words: In-vitro determination of affinity to CB2-receptor, radioligand [3H]-CP55940. The format is binding. How it is done:
Brockie et al., “Agonist-inverse agonist characterization at CB1 and CB2 cannabinoid receptors of L-759633, L759656 and AM630”, British Journal of Pharmacology, 126, 665-672, (1999), whereby the transfected human CB1 and CB2 receptors of Receptor Biology, Inc. are used. The radioligand used for both receptors is [^3H]-CP55940.
The affinity of the inventive substituted pyrazoline compounds to CB1/CB2 receptors was determined as described above.

What is called melting point is the temperature, or range, at which the solid turns liquid. One may read the Ki as a dissociation constant, usually derived from enzyme kinetics or from competition with a known ligand. A lower Ki goes with higher affinity.

As for `CN1CCN(NC(=O)C2=NN(c3ccc(Cl)cc3Cl)C(c3ccc(Cl)cc3)C2)CC1.Cl` (stereo not shown), the melting point is 150 to 155 °C.
For `O=C(NN1CCCCC1)C1=NN(c2ccc(Cl)cc2Cl)C(c2ccc(Cl)cc2)C1` (stereo not shown) [Example 1, N-piperidinyl-5-(4-chlorophenyl)-1-(2,4-dichlorophenyl)-4,5-dihydro-1H-pyrazole-3-carboxamide], in the data set on cannabinoid receptors [1], the Agonistic effect A: Hot-Plate test is 0%, the Agonistic effect C: Catalepsy turned out to be 0%, the “Agonistic effect D: Sedation” value turned out to be 0 and the Agonistic effect B: Hypothermia came to 0%. Also, in the data set with cannabinoid receptors [2], the Antagonistic effect C: Catalepsy came to 100%, the Antagonistic effect D: Sedation turned out to be 100%, the Antagonistic effect A: Hot-Plate test was 74% and the Antagonistic effect B: Hypothermia was 100%. For the same molecule, in data set [3], the immobility time entry is “positive effects” and the struggling time entry is reported as “positive effects”. In addition, in data set [4] (10 mg/kg intraperitoneally daily over 14 days, FIG. 1), the body weight result is recorded as “lowered”. In data set [4] (10 mg/kg intraperitoneally daily over 14 days, FIG. 2), the food intake result was “reduction of food intake”. The “body weight effect after the treatment is ended” value in data set [4] (after end of 14 days of 10 mg/kg i.p. daily, FIG. 1) is “also observed after the treatment is ended”.
As to `O=C(C1=NN(c2ccc(Cl)cc2Cl)C(c2ccc(Cl)cc2)C1)N1CCCCC1` (stereo not shown) [Example 5, [5-(4-Chloro-phenyl)-1-(2,4-dichloro-phenyl)-4,5-dihydro-1H-pyrazol-3-yl]-piperidin-1-yl-methanone], the melting point was 105 to 110 °C. Besides, in the data set on cannabinoid receptors [1], the Agonistic effect A: Hot-Plate test came to 0%, the Agonistic effect C: Catalepsy came out at 0%, the “Agonistic effect D: Sedation” value stood at 0 and the Agonistic effect B: Hypothermia was 50%. Moreover, in the data set with cannabinoid receptors [2], the Antagonistic effect C: Catalepsy is 20%, the Antagonistic effect D: Sedation was 20%, the Antagonistic effect A: Hot-Plate test came out at 50% and the Antagonistic effect B: Hypothermia is 40%. Besides, the Ki on CB2-Receptor was about 1000 nM.
Molecule `O=C(Nn1cnnc1)C1=NN(c2ccc(Cl)cc2Cl)C(c2ccc(Cl)cc2)C1` (stereo not shown) gave a melting point of 134 to 138 °C.
